Reference: PMC12933331, “A Cryptic Pocket Allosterically Modulates Oligosaccharide Binding to DC-SIGN” (JACS Au, 2026)
Substitutions are numbered along the chain they refer to.

Experiments:
Assay in all cases: Plate-based horseradish peroxidase assay
Assay type in all cases: binding
Settings in all cases: 1 µg mL-1 HRP, 25 mM CaCl2
DC-SIGN ECD T314A = molecular target: T1, DC-SIGN ECD T314A (Homo sapiens, UniProt Q9NNX6, T314A)
T1 construct: acids 64 -404 of DC -SIGN; made in house
T1 sequence (Q9NNX6 64-404 T314A): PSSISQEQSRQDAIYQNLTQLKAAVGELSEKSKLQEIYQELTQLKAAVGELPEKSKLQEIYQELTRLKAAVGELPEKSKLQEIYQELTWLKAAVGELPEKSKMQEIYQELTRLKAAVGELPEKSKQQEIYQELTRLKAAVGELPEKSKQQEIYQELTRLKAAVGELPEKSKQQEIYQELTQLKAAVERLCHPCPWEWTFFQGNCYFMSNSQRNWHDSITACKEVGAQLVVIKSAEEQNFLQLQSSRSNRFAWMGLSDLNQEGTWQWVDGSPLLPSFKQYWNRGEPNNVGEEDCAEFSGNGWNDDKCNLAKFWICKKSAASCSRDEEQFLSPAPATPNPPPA

DC-SIGN ECD wildtype = molecular target: T2, DC-SIGN ECD wildtype (Homo sapiens, UniProt Q9NNX6)
T2 construct: acids 64 -404 of DC -SIGN; made in house
T2 sequence (Q9NNX6 64-404): T1 sequence (Q9NNX6 64-404 T314A) with A251T
Protocol: (§1) chromatography. Purified protein was dialyzed against 25 mM HEPES, 150 mM NaCl, 10 mM CaCl2, pH 7.4, concentrated using a centrifugal spin filter, snap frozen and then stored at -80°C. […]
(§2) Plate-based horseradish peroxidase assay
(§3) General remarks. Unless stated otherwise, all reagents and buffers were obtained from Sigma Aldrich or Carl Roth. Measurements were done on a Enspire Multimode Plate Reader (PerkinElmer). GraphPad Prism was used for all data processing and analysis.
(§4) CaCl2 titration. 100 µg mL-1 DC-SIGN ECD were immobilized in immobilization buffer (25 mM HEPES, 150 mM NaCl, 25 mM CaCl 2, pH 7.4) overnight at 4°C on transparent Nunc Maxisorp 96-well plates (Thermo Fisher). Protein solution was removed, and plates were washed three times with immobilization buffer and then blocked for 2 hours at 4°C with blocking buffer (25 mM HEPES, 150 mM NaCl, 25 mM CaCl 2, 2% BSA, 0.01% Tween -20). Plates were washed twice with 25 mM HEPES, 150 mM NaCl, 5 mM EDTA, pH 7.4 and twice with 25 mM HEPES, 150 mM NaCl, pH 7.4 to remove residual Ca 2+. To titrate Ca2+, CaCl2 in 25 mM HEPES, 150 mM NaCl, pH 7.4 was serially diluted on the plate at a constant HRP concentration of 1 µg mL-1 and then incubated at RT for 2 hours. Following incubation, plates were washed three times with 25 mM HEPES, 150 mM NaCl, pH 7.4 and bound HRP was detected using a TMB substrate kit (Thermo Fisher) and 0.18 M H2SO4 according to manufacturer’s instructions. Absorption was […]
(§5) HRP titration. Immobilization and blocking were done as described above. After blocking, plates were washed three times with immobilization buffer. HRP in immobilization buffer was serially diluted on the plate at a constant concentration CaCl2 concentration of 25 mM and then incubated […]
(§6) at RT for 2 hours. Following incubation, plates were washed three times with immobilization buffer and HRP was detected as described above.
(§7) Immobilization and blocking were done as described above. After blocking, plates were washed three times with immobilization buffer. Mannose in immobilization buffer containing 1 µg mL-1 HRP was serially diluted on the plate and then incubated at RT for 2 hours.
(§8) Following incubation, plates were washed three times with immobilization buffer and HRP was detected as described above.
(§9) All conditions were measured in technical triplicates, averaged and normalized to the control well […]
(§10) IC50 and EC50 values and hill […]
(§11) slopes (nH) were obtained in a four-parameter fit according to equation (1).
(§12) Y = bottom + top − bottom (1)
(§13) With bottom and top representing the minimal and maximal response plateaus, respectively, Y as the observed response and X the logarithmic concentration of the ligand . […]
(§14) Biosynth. Spectra were processed in TopSpin 4.2.0 and data analysis was performed using CCPN Analysis 3.2.0 for 2D spectra and in MestreNova for 1D spectra.2 Further analysis was done using GraphPad Prism and in-house python scripts.

DC-SIGN ECD M270F = molecular target: T3, DC-SIGN ECD M270F (Homo sapiens, UniProt Q9NNX6, M270F)
T3 construct: acids 64 -404 of DC -SIGN; made in house
T3 sequence (Q9NNX6 64-404 M270F): T1 sequence (Q9NNX6 64-404 T314A) with M207F, A251T
Protocol: as §1, §2, §3, §4, §5, §6, §7, §8, §9, §10, §11, §12, §13, §14

[1] = read-out: IC50, inhibition of HRP binding

hill slope, inhibition of HRP binding (DC-SIGN ECD T314A): -2.1 | hill slope, inhibition of HRP binding (DC-SIGN ECD wildtype): -1.8 | IC50 (DC-SIGN ECD wildtype; [1]): 2300 µM | hill slope, inhibition of HRP binding (DC-SIGN ECD M270F): -1.5 | IC50 (DC-SIGN ECD M270F; [1]): 3100 µM
Structure (SMILES): OC[C@H]1OC(O)[C@@H](O)[C@@H](O)[C@@H]1O (some centres unmarked) [mannose]
